Values quoted from earlier work, collected in US20070219127A1, “CYCLOSPORIN A COMPOSITIONS” (priority 2006, published 2007).

Row | Compound | systemically administered elimination half-life
1 | FC1(F)C(F)(F)C(F)(F)C2(F)C(F)(F)C(F)(F)C(F)(F)C(F)(F)C2(F)C1(F)F (centres unmarked) [PFD, Perfluoro (decahydronaphthalene)] | about 7 days
2 | FC1(F)C(F)(F)C(F)(F)C2(F)C(F)(C1(F)F)C(F)(F)C(F)(F)C1(F)C(F)(F)C(F)(F)C(F)(F)C(F)(F)C12F (centres unmarked) [PPP, perfluoroperhydrophenanthrene] | about 7 days
